Reference: EP4772505A1, “COMPOUND FOR DEGRADING ANDROGEN RECEPTOR AND MEDICAL USE THEREOF” (Ubix Therapeutics, Inc., priority 2023, dated 2025)
Substitutions are numbered along the chain they refer to. Read-outs that look alike come from different tables or passages of the source.

Assays:
[1] = target: T1, Androgen Receptor (AR) (Homo sapiens, UniProt P10275); assay: Measurement of AR protein degradation in VCaP cells by Western blotting; assay type: cell-based; set-up: endogenous in cells; host or cells: VCaP; conditions: VCaP, 20 h, read-out: AR degradation in VCaP cells (%)
T1 sequence (P10275 1-920): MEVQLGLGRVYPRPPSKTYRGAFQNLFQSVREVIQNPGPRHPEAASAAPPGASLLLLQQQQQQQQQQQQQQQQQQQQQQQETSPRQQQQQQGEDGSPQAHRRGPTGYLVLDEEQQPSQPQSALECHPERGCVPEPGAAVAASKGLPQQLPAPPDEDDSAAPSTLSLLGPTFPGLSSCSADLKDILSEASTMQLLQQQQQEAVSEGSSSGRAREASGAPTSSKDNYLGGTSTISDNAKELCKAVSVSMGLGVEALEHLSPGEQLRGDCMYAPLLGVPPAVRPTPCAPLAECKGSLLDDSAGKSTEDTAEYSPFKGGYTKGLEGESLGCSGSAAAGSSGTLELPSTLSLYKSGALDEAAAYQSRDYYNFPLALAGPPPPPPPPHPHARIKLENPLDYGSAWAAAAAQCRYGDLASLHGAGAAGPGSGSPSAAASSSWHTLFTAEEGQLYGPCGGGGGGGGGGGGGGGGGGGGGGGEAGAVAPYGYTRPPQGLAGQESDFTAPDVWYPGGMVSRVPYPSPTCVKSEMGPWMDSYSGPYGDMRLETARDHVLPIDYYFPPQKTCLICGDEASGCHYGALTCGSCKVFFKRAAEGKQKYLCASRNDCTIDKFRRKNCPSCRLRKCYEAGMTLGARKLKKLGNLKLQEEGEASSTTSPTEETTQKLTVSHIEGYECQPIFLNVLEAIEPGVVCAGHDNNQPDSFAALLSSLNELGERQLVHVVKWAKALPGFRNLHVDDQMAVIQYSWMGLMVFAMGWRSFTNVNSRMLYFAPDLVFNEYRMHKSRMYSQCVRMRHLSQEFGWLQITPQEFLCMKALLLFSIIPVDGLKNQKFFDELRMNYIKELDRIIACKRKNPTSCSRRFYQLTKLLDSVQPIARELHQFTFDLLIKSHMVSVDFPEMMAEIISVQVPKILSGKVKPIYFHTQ
Description: (§1) The amount of AR protein present in LNCaP or VCaP cells was measured after treating them with the synthesized compound. The amount of AR protein was measured using Western blotting. The protocol for the experiments using LNCaP or VCaP cells was as follows.
(§2) [Culture] LNCaP cells were resuspended in RPMI1640 medium + HEPES (Hyclone, SH30255.01), 10% FBS (Hyclone, SV30207.02), and 1% Penicillin-streptomycin (Welgene, LS 202-02). 3 x 10^5 cells/mL were seeded in 12-well plates (1 mL per well) and cultured for 3 days. VCaP cells were resuspended in IMDM MEDIUM (Hyclone, SH30228.01), 20% FBS (Hyclone, SV30207.02), and 1% Penicillin-streptomycin (Welgene, LS 202-02), seeded at 9 x 10^5/mL in 1 mL per 12-well plate, and cultured for 3 days.
(§3) [Compound Treatment] 10 µL of 100x stock (e.g., 0.1, 1, 10 µM) compound solution at the final compound treatment concentration (e.g., 0.001, 0.01, 0.1 µM) was added to each well in 1 mL media, and cells were harvested after 20 hours. For DC50 measurement, 100x stock (0.01, 0.1, 1, 10, 100, 1000 µM) compound solutions at the final compound treatment concentration (0.0001, 0.001, 0.01, 0.1, 1, 10 µM) were used.
(§4) [Cell lysis] The cell pellet was suspended using 1% SDS lysis buffer (50 mM Tris, 1 mM EDTA, 1% SDS, pH 8.0, 0.5 mM PMSF, 1x Protease/Phosphatase inhibitor Cocktail (Cell Signaling Technology, 5872S)), and sonication (70% AMP, 10 cycles (30 sec ON/59 sec OFF)) was performed. After centrifugation at 4°C and 20,000 g for 20 minutes, the cell lysate was obtained and transferred to a new tube.
(§5) [Protein Quantification] A BCA protein assay (SMART™ BCA Protein Assay Kit, iNtRON Biotechnology, 21071) was performed using a 96-well microplate. 5 µL of cell lysate and 5 µL of 1% SDS lysis buffer were added to each well of the 96-well plate, followed by an additional 200 µL of BCA reagent (Reagent A: Reagent B = 50:1). The wells were incubated at 37°C for 30 minutes and cooled to room temperature for 10 minutes. After shaking for 10 seconds, the absorbance was measured at a wavelength of 562 nm. The unknown protein concentration was determined using a BSA standard curve (0, 0.125, 0.25, 0.5, 1, 2 mg/mL). Western blotting samples were prepared by mixing cell lysate, 1% SDS lysis buffer, 4x NuPAGE™ LDS Sample buffer (Invitrogen, NP0008), and 10X NuPAGE™ Sample Reducing Agent (Invitrogen, NP0009) and boiling at 70°C for 10 minutes.
(§6) [Electrophoresis] 10 µg of protein sample was loaded into each well of a NuPAGE™ 4 to 12%, Bis-Tris, 1.0 mm Mini Protein Gel, 15-well, 17-well, or 26-well (Invitrogen, NP0323BOX, NP0329BOX, or WG1403BOX) and electrophoresed for 40 minutes using NuPAGE™MES SDS Running Buffer (Invitrogen, NP0002) at 200 V (constant V).
(§7) [Transfer] Transfer was performed for 15 or 18 minutes using the electrophoresed gel and the Trans-Blot® Turbo™ Transfer Starter System (Bio-RAD, #17001918, Mini Nitrocellulose) at 1.3 A (constant A) and 25 V (limit V). To confirm protein transfer, 15 mL of Ponceau S solution (Sigma, P7170-1L) was used to stain for 1 minute, and then washed to check the degree of transfer.
(§8) [Blocking] The membrane for AR and GAPDH detection was blocked with 5% skim milk/0.2% TBST (Skim milk: BD, 232100/ 20X TBS: Biosesang, TR2008-100-00/ 10% Tween 20 Solution: Bio-RAD, #161-0781) for 45 minutes.
(§9) [Antibodies and Detection] Primary AR antibody (Androgen Receptor: CST, 5153S) was mixed with 5% skim milk/0.2% TBST at a ratio of 1:1,000 and reacted at room temperature for 3 hours or at 4°C overnight. Primary GAPDH antibody (CST, 2118S) was mixed with 5% skim milk/0.2% TBST at a ratio of 1:2,000 and reacted at room temperature for 3 hours or at 4°C overnight. Afterwards, TBST (0.2% Tween 20) was used for washing three times every 5 minutes. Secondary antibody to AR antibody, Anti-rabbit IgG, HRP-linked Antibody (CST, 7074S), was mixed with 5% skim milk/0.2% TBST at a ratio of 1:5,000 and reacted at room temperature for 45 minutes. […]

[2] = target: T2, Androgen Receptor (AR) (Homo sapiens, UniProt P10275, T878A); assay: Measurement of AR protein degradation in LNCaP cells by Western blotting; assay type: cell-based; conditions: read-out: AR degradation in LNCaP cells (%)
T2 construct: endogenous in cells; host or cells: LNCaP
T2 sequence (P10275 1-920 T878A): T1 sequence (P10275 1-920) with T878A
Description: as §1, §2, §3, §4, §5, §6, §7, §8, §9

| Compound | Dmax at 0.01 µM [1] [%] | Dmax at 0.1 µM [1] [%] | Dmax at 0.01 µM ([2]; LNCaP, 20 h) [%] | Dmax at 0.1 µM ([2]; LNCaP, 20 h) [%] | other results |
| --- | --- | --- | --- | --- | --- |
| N#Cc1ccc(N2CCC(C(=O)Nc3ccc(OC4CCN(CC5CCN(c6ccc(NC7CCC(=O)NC7=O)cc6F)CC5)CC4)nn3)CC2)c(F)c1C(F)(F)F (stereo not drawn) [Example 14, 1-(4-cyano-2-fluoro-3-(trifluoromethyl)phenyl)-N-(6-((1-((1-(4-((2,6-dioxopiperidin-3-yl)amino)-2-fluorophenyl)piperidin-4-yl)methyl)piperidin-4-yl)oxy)pyridazin-3-yl)piperidine-4-carboxamide] | 87 | 95 | – | – | – |
| N#Cc1ccc(N2CCC(C(=O)Nc3ccc(OC4CCN(CC5CCN(c6ccc(NC7CCC(=O)NC7=O)cc6C(F)(F)F)CC5)CC4)cn3)CC2)cc1C(F)(F)F (stereo not drawn) [Example 18, 1-(4-cyano-3-(trifluoromethyl)phenyl)-N-(5-((1-((1-(4-((2,6-dioxopiperidin-3-yl)amino)-2-(trifluoromethyl)phenyl)piperidin-4-yl)methyl)piperidin-4-yl)oxy)pyridin-2-yl)piperidine-4-carboxamide] | – | – | 51 | 98 | – |
| N#Cc1ncc(N2CCC(C(=O)Nc3ccc(OC4CCN(CC5CCN(c6ccc(NC7CCC(=O)NC7=O)cc6F)CC5)CC4)cn3)CC2)cc1C(F)(F)F (stereo not drawn) [Example 5, 1-(6-cyano-5-(trifluoromethyl)pyridin-3-yl)-N-(5-((1-((1-(4-((2,6-dioxopiperidin-3-yl)amino)-2-fluorophenyl)piperidin-4-yl)methyl)piperidin-4-yl)oxy)pyridin-2-yl)piperidine-4-carboxamide] | – | – | – | – | Dmax at 0.01 µM ([2]; 10 nM compound, 20 hours, LNCaP cells): 63%; Dmax at 0.1 µM ([2]; 100 nM compound, 20 hours, LNCaP cells): 97% |
| N#Cc1ccc(N2CCC(C(=O)Nc3ccc(OC4CCN(CC5CCN(c6ccc(NC7CCC(=O)NC7=O)cc6F)CC5)CC4)cn3)CC2)c(F)c1C(F)(F)F (stereo not drawn) [Example 11, 1-(4-cyano-2-fluoro-3-(trifluoromethyl)phenyl)-N-(5-((1-((1-(4-((2,6-dioxopiperidin-3-yl)amino)-2-fluorophenyl)piperidin-4-yl)methyl)piperidin-4-yl)oxy)pyridin-2-yl)piperidine-4-carboxamide] | 89 | 99 | – | – | – |
| N#Cc1ccc(N2CCC(C(=O)Nc3ccc(OC4CCN(C5CCN(c6ccc(NC7CCC(=O)NC7=O)cc6F)CC5)CC4)cn3)CC2)cc1C(F)(F)F (stereo not drawn) [Example 4, 1-(4-cyano-3-(trifluoromethyl)phenyl)-N-(5-((1'-(4-((2,6-dioxopiperidin-3-yl)amino)-2-fluorophenyl)-[1,4'-bipiperidin]-4-yl)oxy)pyridin-2-yl)piperidine-4-carboxamide] | – | – | 76 | 93 | – |
| N#Cc1ccc(N2CCN(C(=O)Nc3ccc(OC4CCN(CC5CCN(c6ccc(NC7CCC(=O)NC7=O)cc6F)CC5)CC4)cn3)CC2)cc1C(F)(F)F (stereo not drawn) [Example 6, 4-(4-cyano-3-(trifluoromethyl)phenyl)-N-(5-((1-((1-(4-((2,6-dioxopiperidin-3-yl)amino)-2-fluorophenyl)piperidin-4-yl)methyl)piperidin-4-yl)oxy)pyridin-2-yl)piperazine-1-carboxamide] | – | – | 84 | 99 | – |
